Results from patent US20260176320A1, “MODULATORS OF G-PROTEIN COUPLED RECEPTORS” (priority 2018, published 2026).
Where two headings read alike, the source gives them in different places.

Key:
Format in all cases: cell-based
[1] = target: T1, GLP-1R (Homo sapiens, UniProt P43220); assay: HitHunter cAMP assay (GLP-1R); conditions: cAMP; for EC50: EC50 GLP-1R/nM; for Emax: read-out: (Emax) GLP-1R
Outline: (§1)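 cAMP accumulation read by luminescent HitHunter immunocompetition after 30 min room-temperature agonist stimulation. Agonists tested as 22-point twofold dilutions, in duplicate, on 10,000 cells/well in HBSS containing 625 μM IBMX, 10 mM HEPES and 0.2% BSA.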

[2] = target: T1, GLP-1R; assay: PathHunter β-arrestin assay
Outline: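 β-Arrestin recruitment measured by PathHunter enzyme-fragment luminescence, read after 3 h dark incubation at room temperature with detection solution. Beforehand, agonist in a 22-point 2-fold series was applied in duplicate for 90 min at 37 °C to 5,000 cells/well in BSA-containing (0.2%) medium.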

[3] = target: T2, GIP-R (Homo sapiens, UniProt P48546); assay: HitHunter cAMP assay (GIP-R); conditions: cAMP; for EC50: EC50 GIP-R/nM; for Emax: read-out: (Emax) GIP-R
T2 sequence (P48546 22-466): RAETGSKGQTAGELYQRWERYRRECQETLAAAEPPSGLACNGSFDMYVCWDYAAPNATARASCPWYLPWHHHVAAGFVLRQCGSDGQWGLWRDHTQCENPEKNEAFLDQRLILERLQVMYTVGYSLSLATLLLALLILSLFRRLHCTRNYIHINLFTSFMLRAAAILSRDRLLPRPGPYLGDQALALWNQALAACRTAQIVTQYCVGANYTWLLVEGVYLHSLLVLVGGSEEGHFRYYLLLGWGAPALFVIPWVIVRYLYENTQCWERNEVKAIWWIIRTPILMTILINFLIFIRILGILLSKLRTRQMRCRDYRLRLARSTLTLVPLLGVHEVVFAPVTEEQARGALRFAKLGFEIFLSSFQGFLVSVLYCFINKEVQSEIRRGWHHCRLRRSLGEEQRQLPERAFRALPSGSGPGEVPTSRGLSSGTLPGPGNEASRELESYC
Outline: as §1

T1 sequence (P43220 24-463): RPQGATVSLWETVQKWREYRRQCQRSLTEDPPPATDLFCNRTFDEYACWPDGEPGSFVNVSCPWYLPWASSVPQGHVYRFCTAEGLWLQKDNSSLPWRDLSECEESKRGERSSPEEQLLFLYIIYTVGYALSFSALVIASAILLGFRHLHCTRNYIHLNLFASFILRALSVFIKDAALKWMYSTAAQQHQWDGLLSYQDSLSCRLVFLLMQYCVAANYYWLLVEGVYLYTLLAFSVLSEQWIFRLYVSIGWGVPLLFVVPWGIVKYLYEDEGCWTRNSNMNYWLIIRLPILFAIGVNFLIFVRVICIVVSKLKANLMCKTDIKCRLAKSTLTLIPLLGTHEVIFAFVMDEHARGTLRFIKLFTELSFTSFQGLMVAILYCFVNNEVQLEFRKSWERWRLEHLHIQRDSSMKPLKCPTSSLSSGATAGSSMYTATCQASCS

## CCCCCCCCCCCCCCCC(=O)N[C@@H](CCC(=O)NCCCC[C@H](NC(=O)[C@H](CO)NC(=O)[C@@H]1CCCN1C(=O)[C@@H]1CCCN1C(=O)[C@@H]1CCCN1C(=O)[C@H](C)NC(=O)CNC(=O)[C@H](CO)NC(=O)[C@H](CO)NC(=O)[C@@H]1CCCN1C(=O)CNC(=O)CNC(=O)[C@H](C)NC(=O)[C@H](CC(C)C)NC(=O)[C@H](CC(C)C)NC(=O)[C@H](Cc1c[nH]c2ccccc12)NC(=O)[C@H](CC(N)=O)NC(=O)[C@@H](NC(=O)[C@H](Cc1ccccc1)NC(=O)[C@H](CCC(=O)O)NC(=O)C(C)(C)NC(=O)[C@H](C)NC(=O)[C@H](C)NC(=O)[C@H](CCC(N)=O)NC(=O)[C@H](CCCCN)NC(=O)[C@H](CC(=O)O)NC(=O)[C@H](CC(C)C)NC(=O)[C@H](Cc1ccc(O)cc1)NC(=O)[C@@H](NC(=O)[C@H](CO)NC(=O)[C@H](Cc1ccc(O)cc1)NC(=O)[C@H](CC(=O)O)NC(=O)[C@H](CO)NC(=O)[C@@H](NC(=O)[C@H](Cc1ccccc1)NC(=O)[C@@H](NC(=O)CNC(=O)[C@H](CCC(=O)O)NC(=O)CSCC(=O)NCCN1CCC[C@H](O)C1=O)[C@@H](C)O)[C@@H](C)O)[C@@H](C)CC)C(C)C)C(N)=O)C(=O)O [Compound 21]
[1]; Table 3
  EC50: < 0.1 nM
  Emax: 95%
[1]; Table 3A
  EC50: < 0.1 nM
  Emax: 95%
[2]
  EC50: > 1 µM
[3]; Table 3
  EC50: 1 to 10 nM
  Emax: 20%
[3]; Table 3A
  EC50: 10 to 100 nM
  Emax: 20%

## CC[C@H](C)[C@H](NC(=O)[C@H](CO)NC(=O)[C@H](Cc1ccc(O)cc1)NC(=O)[C@H](CC(=O)O)NC(=O)[C@H](CO)NC(=O)[C@@H](NC(=O)[C@H](Cc1ccccc1)NC(=O)[C@@H](NC(=O)CNC(=O)[C@H](CCC(=O)O)NC(=O)CSCC(=O)NCCN1C(=O)c2cc3ccccc3cc2C1=O)[C@@H](C)O)[C@@H](C)O)C(=O)N[C@@H](Cc1ccc(O)cc1)C(=O)N[C@@H](CC(C)C)C(=O)N[C@@H](CC(=O)O)C(=O)N[C@@H](CCCCN)C(=O)N[C@@H](CCC(N)=O)C(=O)N[C@@H](C)C(=O)N[C@@H](C)C(=O)NC(C)(C)C(=O)N[C@@H](CCC(=O)O)C(=O)N[C@@H](Cc1ccccc1)C(=O)N[C@H](C(=O)N[C@@H](CC(N)=O)C(=O)N[C@@H](Cc1c[nH]c2ccccc12)C(=O)N[C@@H](CC(C)C)C(=O)N[C@@H](CC(C)C)C(=O)N[C@@H](C)C(=O)NCC(=O)NCC(=O)N1CCC[C@H]1C(=O)N[C@@H](CO)C(=O)N[C@@H](CO)C(=O)NCC(=O)N[C@@H](C)C(=O)N1CCC[C@H]1C(=O)N1CCC[C@H]1C(=O)N1CCC[C@H]1C(=O)N[C@@H](CO)C(=O)N[C@@H](CCCCN)C(N)=O)C(C)C [Compound 163]
[1]; Table 3
  EC50: 10 to 100 nM
  Emax: 73%
[1]; Table 3A
  EC50: 10 to 100 nM
  Emax: 73%
[2]
  EC50: > 1 µM
[3]; Table 3
  EC50: < 0.1 nM
  Emax: 106%
[3]; Table 3A
  EC50: < 0.1 nM
  Emax: 106%
